Measured values as given in patent US20200216441A1, “PESTICIDALLY ACTIVE HETEROCYCLIC DERIVATIVES WITH SULFUR CONTAINING SUBSTITUENTS” (SYNGENTA PARTICIPATIONS AG, priority 2017, published 2020).

Columns and labels:
[1] = system: Diabrotica Balteata (Corn Root Worm); test: Diabrotica balteata (Corn Root Worm); conditions: in Zea mays, 96 h, read-out: effect in at least one of the two categories (mortality or growth inhibition)
[2] = system: Myzus persicae (Green Peach Aphid); test: whole plant or invertebrate; conditions: foliar, 144 h
[3] = system: Bemisia tabaci (Cotton White Fly); conditions: in Gossypium hirsutum, foliar, 144 h
[4] = system: Plutella xylostella (Diamond Back Moth); test: whole plant or invertebrate; format: in vivo; conditions: 120 h, application rate of 200 ppm, L2 larvae on treated artificial diet, 5 days after infestation, read-out: effect in at least one of the two categories (mortality or growth inhibition)
[5] = system: Euschistus heros (Neotropical Brown Stink Bug); test: whole plant or invertebrate; format: in vivo; conditions: 120 h, application rate of 200 ppm, N2 nymphs on sprayed soybean leaves, 5 days after infestation, read-out: effect in at least one of the two categories (mortality or growth inhibition)
[6] = system: Myzus persicae (Green Peach Aphid); test: whole plant or invertebrate; format: in vivo; conditions: 144 h, test rate of 24 ppm, systemic, roots of infested pea seedlings in test solution, 6 days
[7] = system: Spodoptera littoralis (Egyptian Cotton Leaf Worm); test: whole plant or invertebrate; conditions: in Gossypium barbadense, foliar, 72 h, read-out: control (mortality, anti-feeding effect, growth inhibition)

CCSc1cc(OC(C)(C)C)cnc1-c1nc2cc(C(F)(F)F)ncc2n1C [Compound P3, 2-(5-tert-butoxy-3-ethylsulfanyl-2-pyridyl)-3-methyl-6-(trifluoromethyl)imidazo[4,5-c]pyridine]
≥ 80%: mortality at 200 ppm [1] | mortality at 200 ppm [2] | mortality at 200 ppm [3] | percent effect (mortality or growth inhibition) at 200 ppm [4] | percent effect (mortality or growth inhibition) at 200 ppm [5]

CCS(=O)(=O)c1cc(OCS(C)(=O)=O)cnc1-c1nc2cc(C(F)(F)F)ncc2n1C [Compound P9, 2-[3-ethylsulfonyl-5-(methylsulfonylmethoxy)-2-pyridyl]-3-methyl-6-(trifluoromethyl)imidazo[4,5-c]pyridine]
≥ 80%: mortality at 200 ppm [1] | mortality at 24 ppm [6] | mortality at 200 ppm [2] | mortality at 200 ppm [3] | percent effect (mortality or growth inhibition) at 200 ppm [5]

CCS(=O)(=O)c1cc(OCCSC)cnc1-c1nc2cc(C(F)(F)F)ncc2n1C [Compound P11, 2-[3-ethylsulfonyl-5-(2-methylsulfanylethoxy)-2-pyridyl]-3-methyl-6-(trifluoromethyl)imidazo[4,5-c]pyridine]
≥ 80%: mortality at 200 ppm [7] | mortality at 24 ppm [6] | mortality at 200 ppm [2] | mortality at 200 ppm [3] | percent effect (mortality or growth inhibition) at 200 ppm [5]

CCS(=O)(=O)c1cc(OC)cnc1-c1nc2cc(C(F)(F)F)ncc2n1C [Compound P13, 2-(3-ethylsulfonyl-5-methoxy-2-pyridyl)-3-methyl-6-(trifluoromethyl)imidazo[4,5-c]pyridine]
≥ 80%: mortality at 200 ppm [1] | mortality at 200 ppm [7] | mortality at 24 ppm [6] | mortality at 200 ppm [2] | percent effect (mortality or growth inhibition) at 200 ppm [4]

CCS(=O)(=O)c1cc(OC(C)C#N)cnc1-c1nc2cc(C(F)(F)F)ncc2n1C (centres unmarked) [Compound P22, 2-[[5-ethylsulfonyl-6-[3-methyl-6-(trifluoromethyl)imidazo[4,5-c]pyridin-2-yl]-3-pyridyl]oxy]propanenitrile]
≥ 80%: mortality at 200 ppm [1] | mortality at 200 ppm [7] | mortality at 24 ppm [6] | mortality at 200 ppm [2] | percent effect (mortality or growth inhibition) at 200 ppm [4] | percent effect (mortality or growth inhibition) at 200 ppm [5]

CCS(=O)(=O)c1cc(OCC(C)(C)C)cnc1-c1nc2cc(C(F)(F)F)ncc2n1C [Compound P26, 2-[5-(2,2-dimethylpropoxy)-3-ethylsulfonyl-2-pyridyl]-3-methyl-6-(trifluoromethyl)imidazo[4,5-c]pyridine]
≥ 80%: mortality at 200 ppm [1] | mortality at 200 ppm [7] | mortality at 200 ppm [2] | mortality at 200 ppm [3] | percent effect (mortality or growth inhibition) at 200 ppm [4]

CCS(=O)(=O)c1cc(OCCF)cnc1-c1nc2cc(C(F)(F)F)ncc2n1C [Compound P31, 2-[3-ethylsulfonyl-5-(2-fluoroethoxy)-2-pyridyl]-3-methyl-6-(trifluoromethyl)imidazo[4,5-c]pyridine]
≥ 80%: mortality at 200 ppm [1] | mortality at 200 ppm [7] | mortality at 24 ppm [6] | mortality at 200 ppm [2] | percent effect (mortality or growth inhibition) at 200 ppm [4] | percent effect (mortality or growth inhibition) at 200 ppm [5]

CCC(C#N)(CC)Oc1cnc(-c2nc3cc(C(F)(F)F)ncc3n2C)c(S(=O)(=O)CC)c1 [Compound P44, 2-ethyl-2-[[5-ethylsulfonyl-6-[3-methyl-6-(trifluoromethyl)imidazo[4,5-c]pyridin-2-yl]-3-pyridyl]oxy]butanenitrile]
≥ 80%: mortality at 200 ppm [3] | percent effect (mortality or growth inhibition) at 200 ppm [5]

CCS(=O)(=O)c1cc(O[C@H]2C[C@@H](C#N)C2)cnc1-c1nc2cc(C(F)(F)F)ncc2n1C [Compound P46, 3-[[5-ethylsulfonyl-6-[3-methyl-6-(trifluoromethyl)imidazo[4,5-c]pyridin-2-yl]-3-pyridyl]oxy]cyclobutanecarbonitrile]
≥ 80%: mortality at 200 ppm [1] | mortality at 24 ppm [6] | mortality at 200 ppm [2] | mortality at 200 ppm [3] | percent effect (mortality or growth inhibition) at 200 ppm [4] | percent effect (mortality or growth inhibition) at 200 ppm [5]

CCS(=O)(=O)c1cc(OC(C)(C)CSC)cnc1-c1nc2cc(C(F)(F)F)ncc2n1C [Compound P50, 2-[5-(1,1-dimethyl-2-methylsulfanyl-ethoxy)-3-ethylsulfonyl-2-pyridyl]-3-methyl-6-(trifluoromethyl)imidazo[4,5-c]pyridine]
≥ 80%: mortality at 200 ppm [1] | mortality at 24 ppm [6] | mortality at 200 ppm [2] | mortality at 200 ppm [3] | percent effect (mortality or growth inhibition) at 200 ppm [4] | percent effect (mortality or growth inhibition) at 200 ppm [5]

CCS(=O)(=O)c1cc(OCCCS(C)(=O)=O)cnc1-c1nc2cc(C(F)(F)F)ncc2n1C [Compound P52, 2-[3-ethylsulfonyl-5-(3-methylsulfonylpropoxy)-2-pyridyl]-3-methyl-6-(trifluoromethyl)imidazo[4,5-c]pyridine]
≥ 80%: mortality at 24 ppm [6] | mortality at 200 ppm [2] | mortality at 200 ppm [3] | percent effect (mortality or growth inhibition) at 200 ppm [5]

CCS(=O)(=O)c1cc(OCCCSC)cnc1-c1nc2cc(C(F)(F)F)ncc2n1C [Compound P56, 2-[3-ethylsulfonyl-5-(3-methylsulfanylpropoxy)-2-pyridyl]-3-methyl-6-(trifluoromethyl)imidazo[4,5-c]pyridine]
≥ 80%: mortality at 200 ppm [1] | mortality at 24 ppm [6] | mortality at 200 ppm [2] | mortality at 200 ppm [3] | percent effect (mortality or growth inhibition) at 200 ppm [5]

CCS(=O)(=O)c1cc(OC[Si](C)(C)C)cnc1-c1nc2cc(C(F)(F)F)ncc2n1C [Compound P61, [5-ethylsulfonyl-6-[3-methyl-6-(trifluoromethyl)imidazo[4,5-c]pyridin-2-yl]-3-pyridyl]oxymethyl-trimethyl-silane]
≥ 80%: mortality at 200 ppm [1] | mortality at 200 ppm [7] | mortality at 200 ppm [2] | mortality at 200 ppm [3]

CCS(=O)(=O)c1cc(OCC2CC2(F)F)cnc1-c1nc2cc(C(F)(F)F)ncc2n1C (centres unmarked) [Compound P67, 2-[5-[(2,2-difluorocyclopropyl)methoxy]-3-ethylsulfonyl-2-pyridyl]-3-methyl-6-(trifluoromethyl)imidazo[4,5-c]pyridine]
≥ 80%: mortality at 200 ppm [1] | mortality at 200 ppm [7] | mortality at 200 ppm [2] | mortality at 200 ppm [3] | percent effect (mortality or growth inhibition) at 200 ppm [4] | percent effect (mortality or growth inhibition) at 200 ppm [5]

CCS(=O)(=O)c1cc(OCOC)cnc1-c1nc2cc(C(F)(F)F)ncc2n1C [Compound P68, 2-[3-ethylsulfonyl-5-(methoxymethoxy)-2-pyridyl]-3-methyl-6-(trifluoromethyl)imidazo[4,5-c]pyridine]
≥ 80%: mortality at 200 ppm [1] | mortality at 200 ppm [7] | mortality at 24 ppm [6] | mortality at 200 ppm [2] | percent effect (mortality or growth inhibition) at 200 ppm [4] | percent effect (mortality or growth inhibition) at 200 ppm [5]

CCS(=O)(=O)c1cc(OC(C)C)cnc1-c1nc2cc(SC(F)F)ncc2n1C [Compound P86, 6-(difluoromethylsulfanyl)-2-(3-ethylsulfonyl-5-isopropoxy-2-pyridyl)-3-methyl-imidazo[4,5-c]pyridine]
≥ 80%: mortality at 200 ppm [1] | mortality at 200 ppm [7] | mortality at 24 ppm [6] | mortality at 200 ppm [2] | percent effect (mortality or growth inhibition) at 200 ppm [4] | percent effect (mortality or growth inhibition) at 200 ppm [5]

CCS(=O)(=O)c1cc(OC(C)(C)C(N)=O)cnc1-c1nc2cc(C(F)(F)F)ncc2n1C [Compound P89, 2-[[5-ethylsulfonyl-6-[3-methyl-6-(trifluoromethyl)imidazo[4,5-c]pyridin-2-yl]-3-pyridyl]oxy]-2-methyl-propanamide]
≥ 80%: mortality at 200 ppm [1] | mortality at 24 ppm [6] | mortality at 200 ppm [2] | mortality at 200 ppm [3] | percent effect (mortality or growth inhibition) at 200 ppm [4] | percent effect (mortality or growth inhibition) at 200 ppm [5]

CCS(=O)(=O)c1cc(OCS(C)(=O)=O)ccc1-c1nc2cc(C(F)(F)F)ncc2n1C [Compound P105, 2-[2-ethylsulfonyl-4-(methylsulfonylmethoxy)phenyl]-3-methyl-6-(trifluoromethyl)imidazo[4,5-c]pyridine]
≥ 80%: mortality at 200 ppm [1] | mortality at 24 ppm [6] | mortality at 200 ppm [2] | mortality at 200 ppm [3] | percent effect (mortality or growth inhibition) at 200 ppm [5]

CCS(=O)(=O)c1cc(OCSC)ccc1-c1nc2cc(C(F)(F)F)ncc2n1C [Compound P106, 2-[2-ethylsulfonyl-4-(methylsulfanylmethoxy)phenyl]-3-methyl-6-(trifluoromethyl)imidazo[4,5-c]pyridine]
≥ 80%: mortality at 200 ppm [1] | mortality at 24 ppm [6] | mortality at 200 ppm [2] | mortality at 200 ppm [3] | percent effect (mortality or growth inhibition) at 200 ppm [5]

CCS(=O)(=O)c1cc(OCC(F)F)ccc1-c1nc2cc(C(F)(F)F)ncc2n1C [Compound P107, 2-[4-(2,2-difluoroethoxy)-2-ethylsulfonyl-phenyl]-3-methyl-6-(trifluoromethyl)imidazo[4,5-c]pyridine]
≥ 80%: mortality at 200 ppm [1] | mortality at 200 ppm [7] | mortality at 24 ppm [6] | mortality at 200 ppm [2] | percent effect (mortality or growth inhibition) at 200 ppm [4] | percent effect (mortality or growth inhibition) at 200 ppm [5]
